The values that follow come from patent US12150972B1, “Egg white protein anti-inflammatory peptide and application thereof” (Hangzhou BIBAU Biotechnology Co., Ltd., priority 2023, dated 2024).

Peptide text beside a SMILES is read from it. Bounds are passed on as bounds.

Series [1] has as its system NO production in RAW264.7 cells induced by LPS. The experiment in a line: NO production amount in LPS-induced RAW264.7 cells (Griess method). It counts as cell-based, mouse. The following applies: for NO production amount: RAW264.7 induced by LPS 1 μg/mL. As to the method:
The NO production amount in the cell was measured by Griess method. The grouping, treatment and culture methods were the same as 1.2. After 24 hours of culture, the supernatant was collected and the NO production amount was measured using a NO detection kit. 50 μL of cell supernatant, 50 μL of Griess I reagent, and 50 μL of Griess II reagent were mixed, and stood for 5 minutes, and then the absorbance value at 540 nm was measured. According to the instructions of the NO kit, the NO production amount in each sample was calculated, and the inhibition ratio of NO production amount is calculated by formula (2).
In the formula, B refers to the NO inhibition ratio (%), B0 is the NO production amount of the blank group, B1 is the NO production amount of the LPS group, and B2 is the NO production amount of the sample group.
(In general: Nitrite, measured by Griess reagent, commonly stands in for NO production.)

In series [2] the test system is TNF-α secretion in RAW264.7 cells induced by LPS. The experiment in a line: TNF-α secretion in LPS-induced RAW264.7 cells (ELISA). It counts as cell-based, mouse. Particulars: RAW264.7 induced by LPS; sample 500 μg/mL. As to the method:
(§1) The three groups were cultured in the incubator for 24 hours, and the supernatants were collected. According to the instructions of the ELISA kit, the absorbance value at 450 nm was measured and the secretion amounts of inflammatory factors TNF-α, IL-6 and IL-1β were calculated. The inhibition ratios of the three inflammatory factors were calculated by formula (3).
(§2) In the formula, C refers to the inhibition ratio (%) of inflammatory factors, Co is the secretion amount of inflammatory factors in the blank group, C1 is the secretion amount of inflammatory factors in the LPS group, and C2 is the secretion amount of inflammatory factors in the sample group.
Background: An ELISA detects its analyte on a solid surface through an enzyme-linked reagent.

Series [3] deals with IL-6 secretion in RAW264.7 cells induced by LPS. The experiment in a line: IL-6 secretion in LPS-induced RAW264.7 cells (ELISA). In kind it is cell-based, mouse. Particulars: RAW264.7 induced by LPS; sample 500 μg/mL. As to the method: as §1, §2
Series [4] relates to IL-1β secretion in RAW264.7 cells induced by LPS. The experiment in a line: IL-1β secretion in LPS-induced RAW264.7 cells (ELISA). In kind it is cell-based, mouse. Particulars: RAW264.7 induced by LPS; sample 500 μg/mL. As to the method:
as §1, §2

Another series can be described thus: in vitro. The following applies: mouse, RAW264.7 macrophage cells induced by LPS, cell viability.

Experimental for in vitro: The cell viability of RAW264.7 cells was determined by MTT method. RAW264.7 cells in the logarithmic growth phase were seeded in a 96-well plate at 100 μL/well with a density of 4×10^4/well. The outermost layer of the 96-well plate was sealed by PBS solution, and the 96-well plate was transferred to an incubator for culturing for 12 to 24 hours. The incubator temperature was 37° C. and the CO2 concentration was 5%. After the cells adhered to the wall, the waste supernatant was extracted from the 96-well plate. A blank group (added with 100 μL of culture medium), an LPS group (added with 100 μL of LPS with a final mass concentration of 1 μg/mL), and a sample group (added with 100 μL of peptides with different or the same mass concentration and added with LPS with a final mass concentration of 1 μg/mL after 2 hours of reaction) were set, and each group was performed in triplicate. After culturing for 24 hours, 20 μL of MTT solution with a concentration of 5 mg/mL was added into each well. After continuing to culture in the incubator for 4 hours, 100 μL of dimethyl sulfoxide (DMSO) was added and shaken gently for 10 min. The absorbance value at 570 nm was measured with a microplate reader, and the cell viability (%) was calculated according to the formula (1).
In the formula (1), V refers to the cell viability (%), A1 is the absorbance value of the blank group at 570 nm, and A2 is the absorbance value of the sample group at 570 nm.

In general, viability refers to a read-out of living cells in per cent, often relative to untreated cells. `N[C@@H](Cc1ccccc1)C(=O)NCC(=O)N1CCC[C@H]1C(=O)N[C@@H](Cc1c[nH]cn1)C(=O)O` [FGPH, Phe-Gly-Pro-His] (H-FGPH-OH) registered an NO production amount in series [1] (sample 125 μg/mL) of 18.07 ± 0.31 µM. The same compound showed an NO production amount in series [1] (sample 250 μg/mL) of 16.23 ± 0.31 µM. Besides, the NO production amount in series [1] (sample 500 μg/mL) was 13.82 ± 0.31 µM. Further, in series [1] (RAW264.7 induced by LPS, sample 500 μg/mL), the “inhibition ratio of NO production amount” value came to 64.41±0.47%. The “inhibition ratio of TNF-α secretion” value in series [2] was found to be 28.07±2.10%. Moreover, the “inhibition ratio of IL-6 secretion” value in series [3] was 41.72±1.83%. In addition, the “inhibition ratio of IL-1β secretion” value in series [4] came out at 52.43±2.29%. In the series “in vitro”, the viability at 24 h, 125 µg/mL was above 109%; the viability at 24 h, 250 µg/mL is above 109%; the viability at 24 h, 500 µg/mL was above 109%; the viability at 24 h, 1000 µg/mL is below 97%.
